{"source": "patent US10689425B2", "about": "“Collagen-binding synthetic peptidoglycans, preparation, and methods of use” (Purdue Research Foundation, priority 2008, dated 2020)", "molecules": {"B1": {"name": "Decorin: proteoglycan known to influence collagen fibrillogenesis (protein, UniProt P07585 31-359, looked up)", "Decorin": "DEASGIGPEVPDDRDFEPSLGPVCPFRCQCHLRVVQCSDLGLDKVPKDLPPDTTLLDLQNNKITEIKDGDFKNLKNLHALILVNNKISKVSPGAFTPLVKLERLYLSKNQLKELPEKMPKTLQELRAHENEITKVRKVTFNGLNQMIVIELGTNPLKSSGIENGAFQGMKKLSYIRIADTNITSIPQGLPPSLTELHLDGNKISRVDAASLKGLNNLAKLGLSFNSISAVDNGSLANTPHLRELHLDNNKLTRVPGGLAEHKYIQVVYLHNNNISVVGSSDFCPPGHNTKKASYSGVSLFSNPVQYWEIQPSTFRCVYVRSAIQLGNYK"}}, "key": {"[1]": {"tested_on": "collagen", "assay": "SILY binding to collagen (Biacore surface plasmon resonance)", "procedure": "Biacore studies were performed on a Biacore 2000 using a CM-3 chip (Biacore, Inc., Piscataway, N.J.). The CM-3 chip is coated with covalently attached carboxymethylated dextran, which allows for attachment of the substrate collagen via free amine groups. Flow cells (FCs) 1 and 2 were used, with FC-1 as the reference cell and FC-2 as the collagen immobilized cell. Each FC was activated with EDC-NHS, and 1500RU of collagen was immobilized on FC-2 by flowing 1 mg/mL collagen in sodium acetate, pH 4, buffer at 5 μL/min for 10 min. Unreacted NHS-ester sites were capped with ethanolamine; the control FC-1 was activated and capped with ethanolamin.\nTo determine peptide binding affinity, SILY was dissolved in 1×HBS-EP buffer (Biacore) at varying concentrations from 100 uM to 1.5 μm in 2-fold dilutions. […] The first 10 injections were buffer injections, which help to prime the system, followed by randomized sample injections, run in triplicate. Analysis was performed using BIAevaluation software (Biacore)."}, "[2]": {"biological_target": "T1, Type I collagen gels (Bos taurus, UniProt P02453+P02465)", "T1 construct": "purchased Inamed, Freemont, Calif; (Nutragen)", "T1 sequence (P02453 162-1217 limits assumed)": "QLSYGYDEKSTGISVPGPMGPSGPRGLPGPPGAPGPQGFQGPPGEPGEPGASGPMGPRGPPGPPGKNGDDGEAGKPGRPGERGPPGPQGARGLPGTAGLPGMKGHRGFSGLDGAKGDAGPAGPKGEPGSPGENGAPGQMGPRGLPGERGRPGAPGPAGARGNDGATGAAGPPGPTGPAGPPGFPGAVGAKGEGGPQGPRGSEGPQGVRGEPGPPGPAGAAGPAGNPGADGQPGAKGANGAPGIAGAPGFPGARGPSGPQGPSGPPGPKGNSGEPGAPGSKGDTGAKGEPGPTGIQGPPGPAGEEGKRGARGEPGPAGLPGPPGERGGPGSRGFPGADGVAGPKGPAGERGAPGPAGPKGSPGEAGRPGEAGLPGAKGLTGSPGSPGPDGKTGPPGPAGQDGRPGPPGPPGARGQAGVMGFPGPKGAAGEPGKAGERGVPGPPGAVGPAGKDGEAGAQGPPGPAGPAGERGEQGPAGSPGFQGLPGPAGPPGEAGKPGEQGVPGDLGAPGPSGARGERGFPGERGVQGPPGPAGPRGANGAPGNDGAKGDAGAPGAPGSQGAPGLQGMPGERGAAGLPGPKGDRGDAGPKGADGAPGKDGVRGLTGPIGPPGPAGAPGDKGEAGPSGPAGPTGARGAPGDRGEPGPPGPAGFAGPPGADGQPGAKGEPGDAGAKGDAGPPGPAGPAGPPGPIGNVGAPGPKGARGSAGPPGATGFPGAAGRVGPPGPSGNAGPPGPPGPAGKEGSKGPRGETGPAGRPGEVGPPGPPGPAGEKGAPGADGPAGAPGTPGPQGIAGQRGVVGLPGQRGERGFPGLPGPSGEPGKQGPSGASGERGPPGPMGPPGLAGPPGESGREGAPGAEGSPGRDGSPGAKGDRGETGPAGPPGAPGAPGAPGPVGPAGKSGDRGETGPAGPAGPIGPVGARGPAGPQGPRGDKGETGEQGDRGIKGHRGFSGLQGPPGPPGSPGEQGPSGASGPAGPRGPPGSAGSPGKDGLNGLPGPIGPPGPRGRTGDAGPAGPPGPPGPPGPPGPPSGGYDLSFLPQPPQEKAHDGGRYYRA", "T1 sequence (P02465 80-1117 limits assumed)": "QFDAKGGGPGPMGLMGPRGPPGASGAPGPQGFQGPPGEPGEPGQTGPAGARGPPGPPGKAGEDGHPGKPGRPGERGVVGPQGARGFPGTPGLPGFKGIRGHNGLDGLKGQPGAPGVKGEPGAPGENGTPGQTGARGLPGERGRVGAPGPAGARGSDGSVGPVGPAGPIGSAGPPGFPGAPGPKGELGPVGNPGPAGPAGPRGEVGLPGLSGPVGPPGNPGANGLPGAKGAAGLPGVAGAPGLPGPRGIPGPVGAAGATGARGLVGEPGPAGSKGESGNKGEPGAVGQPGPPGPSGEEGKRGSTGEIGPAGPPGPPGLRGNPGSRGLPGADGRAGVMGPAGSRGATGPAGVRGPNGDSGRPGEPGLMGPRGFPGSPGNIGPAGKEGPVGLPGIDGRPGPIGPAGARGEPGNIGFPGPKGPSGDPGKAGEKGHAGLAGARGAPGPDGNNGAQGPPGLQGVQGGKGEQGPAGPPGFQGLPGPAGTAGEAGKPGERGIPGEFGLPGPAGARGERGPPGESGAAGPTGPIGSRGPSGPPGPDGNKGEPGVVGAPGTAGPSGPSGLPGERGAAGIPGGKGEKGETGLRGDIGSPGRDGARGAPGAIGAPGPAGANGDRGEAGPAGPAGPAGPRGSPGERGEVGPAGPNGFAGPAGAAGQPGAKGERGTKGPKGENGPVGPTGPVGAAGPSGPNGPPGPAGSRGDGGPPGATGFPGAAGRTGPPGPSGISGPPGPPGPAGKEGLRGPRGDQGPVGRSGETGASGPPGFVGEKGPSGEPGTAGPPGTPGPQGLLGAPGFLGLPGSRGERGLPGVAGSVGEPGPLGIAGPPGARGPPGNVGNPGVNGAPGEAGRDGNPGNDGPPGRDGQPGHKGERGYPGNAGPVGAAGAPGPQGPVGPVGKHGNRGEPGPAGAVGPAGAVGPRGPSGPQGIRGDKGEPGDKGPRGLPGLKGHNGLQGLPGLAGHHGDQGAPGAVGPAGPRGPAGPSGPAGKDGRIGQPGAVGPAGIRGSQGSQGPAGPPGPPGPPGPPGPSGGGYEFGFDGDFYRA", "assay": "Cryo-SEM of type I collagen gels (fibril diameter, sheet distance, fibril density)", "conditions": "for Fibril diameter: Example 29, images at 20,000×, α=0.05", "procedure": "(§1) Gels were made with Nutragen collagen (Inamed, Freemont, Calif.) at a final concentration of 4 mg/mL collagen. Nutragen stock is 6.4 mg/mL in 10 mM HCl. Gel preparation was performed on ice, and fresh samples were made before each test. The collagen solution was adjusted to physiologic pH and salt concentration, by adding appropriate volumes of 10×PBS (phosphate buffered saline), 1×PBS, and 1M NaOH. For most experiments, samples of DS, decorin, DS-SILY, or DS-SYIR were added at a 10:1 collagen:sample molar ratio by a final 1×PBS addition (equal volumes across treatments) in which the test samples were dissolved at appropriate concentrations. In this way, samples are constantly kept at pH 7.4 and physiologic salt concentration. Collagen-alone samples received a 1×PBS addition with no sample dissolved. Fibrillogenesis will be induced by incubating neutralized collagen solutions at 37° C. overnight in a humidified chamber to avoid dehydration. Gel solutions with collagen:sample molar ratios of other than 10:1 were prepared similarly.\nGels for cryo-SEM were formed, as in EXAMPLE 16, directly on the SEM stage and incubated at 37° C. overnight. The stages were then secured in a cryo-holder and plunged into liquid nitrogen slush. Samples were then transferred to a Gatan Alto 2500 pre-chamber cooled to −170° C. under vacuum. A free-break surface was created with a cooled scalpel, and each sample evaporated under sublimation conditions for 20 min. The sample was coated by platinum sputter coating for 120 s. […] Fibril diameter was calculated using ImageJ software (NIH) measuring individual fibrils by hand (drawing a line across fibrils and measuring its length after properly setting the scale). There were 3 observers, 3 separate images per treatment, 10 fibrils recorded per image giving a total of 90 measurements per treatment. Sheet distance was calculated using ImageJ, again measuring by hand. […]\nUsing a modification of EXAMPLE 21 fibril diameters were measured by cryo-SEM. Fibril diameters from cryo-SEM images taken at 20,000× were measured using ImageJ software (NIH). At least 45 fibrils were measured for each treatment. […]\nCollagen gels were formed in the presence of each additive at a 10:1 molar ratio, as described in EXAMPLE 16, directly on the SEM stage, processed, and imaged as described. Images at 10,000× were analyzed for fibril density calculations. Images were converted to 8-bit black and white, and threshold values for each image were determined using ImageJ software (NIH). […] The ratio of white to black area was calculated using MatLab software. All measurements were taken in triplicate and thresholds were determined by an observer blinded to the treatment."}, "[3]": {"tested_on": "Human aortic smooth muscle cells", "assay": "Collagen remodeling: hydroxyproline content in cell medium", "assay_type": "cell-based", "conditions": "cultures up to 30 days", "procedure": "Following a method by Grassl, et al. (Grassl, et al., Journal of Biomedical Materials Research 2002, 60, (4), 607-612), which is herein incorporated in its entirety, collagen gels with or without synthetic PG mimics were formed as described in EXAMPLE 16. Human aortic smooth muscle cells (Cascade Biologics, Portland, Oreg.) were seeded within collagen gels by adding 4×10^6 cells/mL to the neutralized collagen solution prior to incubation. The cell-collagen solutions were pipetted into an 8-well Lab-Tek chamber slide and incubated in a humidified 37° C. and 5% CO2 incubator. After gelation, the cell-collagen gels will be covered with 1 mL Medium 231 as prescribed by Cascade. Every 3-4 days, the medium was removed from the samples and the hydroxyproline content measured by a standard hydroxyproline assay (Reddy, 1996).\nTo measure degraded collagen in the supernatant medium, the sample was lyophilized, the sample hydrolyzed in 2M NaOH at 120° C. for 20 min. After cooling, free hydroxyproline was oxidized by adding chloramine-T (Sigma) and reacting for 25 min at room temperature. Ehrlich's aldehyde reagent (Sigma) was added and allowed to react for 20 min at 65° C. and followed by reading the absorbance at 550 nm on an M-5 spectrophotometer (Molecular Devices). […] Cultures were incubated for up to 30 days and three samples of each treatment measured. […]"}, "[4]": {"tested_on": "collagen", "assay": "Microplate fluorescence binding of dansyl-labelled peptide or conjugate to immobilized collagen", "conditions": "collagen vs BSA and untreated wells; 100 μM to 10 nM", "procedure": "Binding assays were done in a 96-well high-binding plate, black with a clear bottom (Costar). Collagen was compared to untreated wells and BSA coated wells. Collagen and BSA were immobilized at 37° C. for 1 hr by incubating 90 μL/well at concentrations of 2 mg/mL in 10 mM HCl and 1×PBS, respectively. Each well was washed 3× with 1×PBS after incubating. Z-SILY was dissolved in 1×PBS at concentrations from 100 μM to 10 nM in 10-fold dilutions. Wells were incubated for 30 min at 37° C. and rinsed 3× with PBS and then filled with 90 μL of 1×PBS. Fluorescence readings were taken on an M5 Spectramax Spectrophotometer (Molecular Devices) at excitation/emission wavelengths of 335 nm/490 nm respectively.\nBinding assays were done in a 96-well high binding plate, black with a clear bottom (Costar). Collagen was compared to untreated wells and BSA coated wells. Collagen and BSA were immobilized at 37° C. for 1 hr by incubating 90 μL/well at concentrations of 2 mg/mL in 10 mM HCl and 1×PBS respectively. […]\nWells were preincubated with DS at 37° C. for 30 min to eliminate nonspecific binding of DS to collagen. […] Fluorescence readings were taken on an M5 Spectramax Spectrophotometer (Molecular Devices) at excitation/emission wavelengths of 335 nm/490 nm respectively.\nThe fluorescence binding assays described for DS-ZSILY was performed with peptide sequence ZSYIRIADTNITGC (ZDc13)."}, "[5]": {"biological_target": "T2, collagen (Bos taurus, UniProt P02453+P02465)", "T2 construct": "purchased Inamed, Freemont, Calif; (Nutragen)", "T2 sequence (P02453 162-1217 limits assumed)": "as the sequence (P02453 162-1217 limits assumed) above", "T2 sequence (P02465 80-1117 limits assumed)": "as the sequence (P02465 80-1117 limits assumed) above", "assay": "Collagen fibrillogenesis by turbidity (absorbance at 313 nm)", "assay_type": "biochemical", "conditions": "1:1 collagen:additive molar ratio", "procedure": "as §1\nCollagen fibrillogenesis was monitored by measuring turbidity related absorbance at 313 nm providing information on rate of fibrillogenesis and fibril diameter. […] A SpectraMax M5 at 37° C. was used to measure absorbance at 313 nm at 30 s intervals for 6 hours. […]"}, "[6]": {"tested_on": "Human coronary artery smooth muscle cells (HCA SMC)", "assay": "Gel compaction by cells seeded in collagen gels", "assay_type": "cell-based", "procedure": "Human coronary artery smooth muscle cells (HCA SMC) (Cascade Biologics) were cultured in growth medium (Medium 231 supplemented with smooth muscle growth factor). Cells from passage 3 were used for all experiments. Differentiation medium (Medium 231 supplemented with 1% FBS and 1× pen/strep) was used for all experiments unless otherwise noted.\nCollagen gels were prepared with each additive as described with the exception that the 1×PBS example addition was omitted to accommodate the addition of cells in media. After incubating on ice for 30 min, HCA SMCs in differentiation medium were added to the gel solutions to a final concentration of 1×10^6 cells/mL. Gels were formed in quadruplicate in 48-well non-tissue culture treated plates (Costar) for 6 hrs before adding 500 μL/well differentiation medium. Gels were freed from the well edges after 24 hrs. Medium was changed every 2-3 days and images for compaction were taken at the same time points using a Gel Doc System (Bio-Rad). The cross-sectional area of circular gels correlating to degree of compaction was determined using ImageJ software (NIH). Gels containing no cells were used as a negative control and cells in collagen gels absent additive were used as a positive control. By day 10 all gels had compacted to approximately 10% of the original gel area, and differences between additives were small."}}, "note": "Groups on a side chain read outwards from the residue. *: point of attachment. PDPH = heterobifunctional sulfhydryl-reactive crosslinker; Dansyl = CN(C)c1cccc2c(S(=O)(=O)*)cccc12", "data": [{"molecule": "RRANAALKAGELYKSILYGC", "values": [{"measurement": "Reversibility of binding to collagen", "setting": "[1]; association/disassociation curves, FIG. 3", "value": "binds reversibly with collagen"}, {"measurement": "Kd", "setting": "[1]; calculated from the on-off binding kinetics, collagen immobilized on CM-3 chip", "value": 1.2, "unit": "µM"}, {"measurement": "Fibril density (ratio of fibril containing area to void space)", "setting": "[2]; 10:1 collagen:additive, images at 10,000×", "value": "significantly greater fibril density"}, {"measurement": "Fibril diameter", "setting": "[2]", "value": "decrease in fibril diameter"}, {"measurement": "Collagen degradation by hydroxyproline content in cell medium", "setting": "[3]", "value": "greater collagen degradation compared to collagen alone"}]}, {"molecule": "DS-ZDc13: dermatan sulfate conjugate of ZSYIRIADTNITGC (ZDc13)", "values": [{"measurement": "Specific binding to collagen-treated wells", "setting": "[4]", "value": "binds specifically to the collagen surface in a dose-dependent manner"}]}, {"molecule": "DS-Z-SILY: dermatan sulfate conjugated to dansyl-modified peptide Z-SILY (Dansyl-GRRANAALKAGELYKSILYGC([PDPH-oxidized dermatan sulfate])-NH2)", "values": [{"measurement": "Specific binding to collagen-treated wells", "setting": "[4]", "value": "binds specifically to the collagen-treated wells over BSA and untreated wells"}]}, {"molecule": "SYIRIADTNITGC [Dc13, Dc13 peptide]", "values": [{"measurement": "Effect on fibrillogenesis", "setting": "[5]", "value": "little effect on fibrillogenesis compared to collagen alone"}, {"measurement": "Fibril diameter", "setting": "[2]", "value": "does not affect fibril diameter"}, {"measurement": "Collagen degradation by hydroxyproline content in cell medium", "setting": "[3]", "value": "greater collagen degradation compared to collagen alone"}]}, {"molecule": "B1", "values": [{"measurement": "Fibril diameter", "setting": "[2]", "value": "significantly decrease fibril diameter over collagen or collagen+dermatan sulfate"}, {"measurement": "Gel compaction, statistical significance", "setting": "[6]; Day 7", "value": "significant against all samples"}, {"measurement": "Gel compaction, statistical significance", "setting": "[6]; Days 3 and 5", "value": "significant relative to collagen and DS"}]}]}
